Source: patent US20190276439A1, “METHOD OF TREATING SOLID TUMORS” (priority 2016, published 2019)
pIC50: −log10 of the molar value. Read-outs that look alike come from different tables or passages of the source.

Tests used:
VEGFR 2 = VEGFR 2 (Homo sapiens, UniProt P35968); assay: Compound A kinase selectivity profile; type: biochemical
TrkB = TrkB (Homo sapiens, UniProt Q16620); assay: Compound A kinase selectivity profile; type: biochemical
[1] = Phase 1 clinical study: toxicity, DLT and MTD assessments; type: in vivo, human; conditions: doses of 50-350 mg QD and 125-150 mg BID; up to 350 mg QD (formulation 2)
Description: During the dose-escalation phase, patients were given a single dose of compound A and monitored for adverse events (AEs) for 7 days. If no clinically significant toxicities were observed, patients could enter the 28-day dose-limiting toxicity (DLT) observation phase where they received compound A continuously for 28 days. DLTs were assessed at the end of the 28-day period. If no patients experienced a DLT during the 28-day period, the dose was escalated (FIG. 1). After the completion of the DLT observation phase, patients could continue compound A treatment at their current dose (if they were judged by the investigator to be benefiting from the treatment) until any of the withdrawal criteria (investigator's decision that withdrawal was in the patient's best interest, intolerable toxicity, disease progression) were met.
The study used a modified Fibonacci 3+3 dose-escalation design with at least three evaluable patients treated with each dose. In total, 12 dose cohorts were assessed (FIG. 1). […] If […] patients experienced a DLT, the MTD was considered exceeded and the previous lower dose would be re-assessed to determine the MTD. […]
Safety and tolerability were assessed in all patients who received at least one dose of study medication throughout the study. AEs were recorded throughout the study. […]

VEGFR 1 = VEGFR 1 (Homo sapiens, UniProt P17948); assay: Compound A kinase selectivity profile; type: biochemical
FLT3 = target: T1, FLT3 (Homo sapiens, UniProt P36888); assay: Compound A kinase selectivity profile; type: biochemical
T1 sequence (P36888 27-993): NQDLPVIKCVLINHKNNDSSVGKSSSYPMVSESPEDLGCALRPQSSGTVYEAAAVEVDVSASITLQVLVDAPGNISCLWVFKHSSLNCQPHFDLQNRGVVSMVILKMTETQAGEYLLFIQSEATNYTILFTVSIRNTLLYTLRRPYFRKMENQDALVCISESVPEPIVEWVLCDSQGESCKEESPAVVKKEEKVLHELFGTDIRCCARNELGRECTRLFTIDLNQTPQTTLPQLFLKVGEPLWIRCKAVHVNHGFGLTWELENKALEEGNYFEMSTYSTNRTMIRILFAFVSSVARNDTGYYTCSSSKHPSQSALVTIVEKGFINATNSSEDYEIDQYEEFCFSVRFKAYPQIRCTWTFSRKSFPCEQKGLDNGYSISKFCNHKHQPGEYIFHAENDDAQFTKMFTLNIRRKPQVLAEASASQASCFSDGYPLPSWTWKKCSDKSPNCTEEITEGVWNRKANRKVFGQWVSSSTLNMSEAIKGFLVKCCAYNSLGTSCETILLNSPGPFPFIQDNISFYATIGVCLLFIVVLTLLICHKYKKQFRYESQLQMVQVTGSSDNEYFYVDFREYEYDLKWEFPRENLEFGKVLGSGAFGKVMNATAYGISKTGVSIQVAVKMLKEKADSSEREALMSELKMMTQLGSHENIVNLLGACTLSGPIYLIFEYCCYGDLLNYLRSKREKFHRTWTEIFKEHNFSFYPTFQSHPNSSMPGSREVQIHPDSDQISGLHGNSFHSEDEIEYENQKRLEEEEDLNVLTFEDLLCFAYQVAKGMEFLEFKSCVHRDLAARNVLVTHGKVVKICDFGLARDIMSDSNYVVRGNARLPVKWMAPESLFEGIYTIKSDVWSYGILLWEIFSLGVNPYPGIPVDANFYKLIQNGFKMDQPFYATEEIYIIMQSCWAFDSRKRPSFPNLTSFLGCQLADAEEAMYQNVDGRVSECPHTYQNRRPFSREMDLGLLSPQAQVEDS

advanced solid tumors = assay: Phase 1 clinical study: tumor response (RECIST Version 1.0); type: in vivo, human; conditions: total 77 patients
Description: Patients with neuroendocrine tumors (NETs) were enrolled with priority as preliminary efficacy was shown in these tumor types in the dose-escalation stage.
Tumor response (an exploratory endpoint) was assessed according to Response Evaluation Criteria in Solid Tumors (RECIST) Version 1.0 and measured at baseline, and at the end of every treatment cycle in the first 4 cycles and every other cycle thereafter. Patients with an initial assessment of complete response (CR) or partial response (PR) had to have the result confirmed by a repeat tumor assessment at least 4 weeks later. Calculations of the following parameters were made: objective response rate (ORR) (CR+PR); stable disease (SD) defined as ≥1 assessment of SD at least 6 weeks after study entry; disease control rate (DCR) (CR+PR+SD). Time to response (TTR), duration of response (DoR), and progression-free survival (PFS) were assessed in the subgroup of patients with NET.

CSF1R = CSF1R (Homo sapiens, UniProt P07333); assay: Compound A kinase selectivity profile; type: biochemical
278 other kinases = assay: Compound A kinase selectivity profile; type: biochemical
Fms kinase = target: T2, Fms kinase (Homo sapiens, UniProt P07333); assay: CSF1R inhibition, [γ-33P-ATP] incorporation assay (Eurofins); type: biochemical
T2 construct: purchased Eurofins Pharma Discovery Services UK Ltd
Description: Inhibition of compound A on Fins was determined using […] incorporation assay carried by Eurofins Pharma Discovery Services UK Ltd. Fms kinase was incubated with 8 mM MOPS (3-(N-Morpholino)propanesulfonic acid sodium) pH 7.0, 0.2 mM EDTA ((Ethylenedinitrilo)tetraacetic acid disodium salt), 250 μM […] (a peptide), 10 mM MgAcetate and [γ-33P-ATP] (specific activity approx. 500 cpm/pmol, concentration as required). The reaction was initiated by the addition of the MgATP mix. After incubation for 40 minutes at room temperature, the reaction was stopped by the addition of 3% phosphoric acid solution. 10 μL of the reaction was then spotted onto a P30 filtermat and washed three times for 5 minutes in 75 mM phosphoric acid and once in methanol prior to drying and scintillation counting.

VEGFR 3 = VEGFR 3 (Homo sapiens, UniProt P35916); assay: Compound A kinase selectivity profile; type: biochemical
FGFR1 = FGFR1 (Homo sapiens, UniProt P11362); assay: Compound A kinase selectivity profile; type: biochemical
NET = conditions: cited from earlier work; for ORR: phase 3 trial

T2 sequence (P07333 20-972): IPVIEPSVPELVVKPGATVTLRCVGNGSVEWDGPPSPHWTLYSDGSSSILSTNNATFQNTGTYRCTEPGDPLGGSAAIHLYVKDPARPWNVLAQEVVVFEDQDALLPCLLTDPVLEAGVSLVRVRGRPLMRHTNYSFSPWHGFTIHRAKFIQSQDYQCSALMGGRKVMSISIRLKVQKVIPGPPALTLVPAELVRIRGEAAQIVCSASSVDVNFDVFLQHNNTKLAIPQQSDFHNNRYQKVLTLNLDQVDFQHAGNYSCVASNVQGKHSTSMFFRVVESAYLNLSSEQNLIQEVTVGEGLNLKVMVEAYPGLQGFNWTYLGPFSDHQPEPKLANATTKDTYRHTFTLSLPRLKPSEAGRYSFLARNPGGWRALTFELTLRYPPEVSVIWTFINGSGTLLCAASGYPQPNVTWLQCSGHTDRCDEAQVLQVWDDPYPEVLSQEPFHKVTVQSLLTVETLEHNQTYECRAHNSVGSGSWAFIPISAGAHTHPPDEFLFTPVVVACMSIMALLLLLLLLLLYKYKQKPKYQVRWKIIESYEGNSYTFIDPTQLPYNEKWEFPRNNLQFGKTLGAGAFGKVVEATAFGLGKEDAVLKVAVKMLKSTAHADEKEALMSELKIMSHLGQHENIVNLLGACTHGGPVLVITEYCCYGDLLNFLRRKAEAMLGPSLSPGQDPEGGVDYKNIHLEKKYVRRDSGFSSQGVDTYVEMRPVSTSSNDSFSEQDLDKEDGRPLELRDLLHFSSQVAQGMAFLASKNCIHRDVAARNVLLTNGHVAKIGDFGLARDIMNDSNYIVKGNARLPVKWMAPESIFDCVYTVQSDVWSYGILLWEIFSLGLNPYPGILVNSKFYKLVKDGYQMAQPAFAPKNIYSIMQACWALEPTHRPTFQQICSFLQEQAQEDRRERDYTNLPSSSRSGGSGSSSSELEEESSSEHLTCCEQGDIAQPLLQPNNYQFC
Sequence of FGFR1 (P11362 22-822): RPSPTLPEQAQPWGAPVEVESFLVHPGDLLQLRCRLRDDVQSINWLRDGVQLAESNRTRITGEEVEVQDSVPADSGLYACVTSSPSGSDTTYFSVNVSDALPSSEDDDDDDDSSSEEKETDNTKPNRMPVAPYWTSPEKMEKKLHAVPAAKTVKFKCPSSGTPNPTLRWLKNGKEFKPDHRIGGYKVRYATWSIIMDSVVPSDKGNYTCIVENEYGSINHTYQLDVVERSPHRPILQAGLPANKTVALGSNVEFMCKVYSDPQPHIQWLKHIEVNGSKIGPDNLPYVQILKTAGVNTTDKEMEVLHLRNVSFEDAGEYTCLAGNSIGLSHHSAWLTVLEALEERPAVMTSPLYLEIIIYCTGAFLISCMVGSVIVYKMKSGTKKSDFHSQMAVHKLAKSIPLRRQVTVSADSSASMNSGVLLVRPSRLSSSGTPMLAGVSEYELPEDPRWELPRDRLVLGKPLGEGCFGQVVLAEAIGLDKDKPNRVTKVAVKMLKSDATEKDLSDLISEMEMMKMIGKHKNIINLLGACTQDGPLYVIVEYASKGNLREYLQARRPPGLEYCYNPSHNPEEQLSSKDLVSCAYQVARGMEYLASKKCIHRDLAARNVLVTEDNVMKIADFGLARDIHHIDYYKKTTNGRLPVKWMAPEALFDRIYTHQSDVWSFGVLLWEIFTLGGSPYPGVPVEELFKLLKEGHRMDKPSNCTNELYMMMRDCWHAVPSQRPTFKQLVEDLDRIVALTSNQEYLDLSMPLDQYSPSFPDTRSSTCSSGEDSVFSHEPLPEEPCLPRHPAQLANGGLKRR
Sequence of VEGFR 2 (P35968 20-1356): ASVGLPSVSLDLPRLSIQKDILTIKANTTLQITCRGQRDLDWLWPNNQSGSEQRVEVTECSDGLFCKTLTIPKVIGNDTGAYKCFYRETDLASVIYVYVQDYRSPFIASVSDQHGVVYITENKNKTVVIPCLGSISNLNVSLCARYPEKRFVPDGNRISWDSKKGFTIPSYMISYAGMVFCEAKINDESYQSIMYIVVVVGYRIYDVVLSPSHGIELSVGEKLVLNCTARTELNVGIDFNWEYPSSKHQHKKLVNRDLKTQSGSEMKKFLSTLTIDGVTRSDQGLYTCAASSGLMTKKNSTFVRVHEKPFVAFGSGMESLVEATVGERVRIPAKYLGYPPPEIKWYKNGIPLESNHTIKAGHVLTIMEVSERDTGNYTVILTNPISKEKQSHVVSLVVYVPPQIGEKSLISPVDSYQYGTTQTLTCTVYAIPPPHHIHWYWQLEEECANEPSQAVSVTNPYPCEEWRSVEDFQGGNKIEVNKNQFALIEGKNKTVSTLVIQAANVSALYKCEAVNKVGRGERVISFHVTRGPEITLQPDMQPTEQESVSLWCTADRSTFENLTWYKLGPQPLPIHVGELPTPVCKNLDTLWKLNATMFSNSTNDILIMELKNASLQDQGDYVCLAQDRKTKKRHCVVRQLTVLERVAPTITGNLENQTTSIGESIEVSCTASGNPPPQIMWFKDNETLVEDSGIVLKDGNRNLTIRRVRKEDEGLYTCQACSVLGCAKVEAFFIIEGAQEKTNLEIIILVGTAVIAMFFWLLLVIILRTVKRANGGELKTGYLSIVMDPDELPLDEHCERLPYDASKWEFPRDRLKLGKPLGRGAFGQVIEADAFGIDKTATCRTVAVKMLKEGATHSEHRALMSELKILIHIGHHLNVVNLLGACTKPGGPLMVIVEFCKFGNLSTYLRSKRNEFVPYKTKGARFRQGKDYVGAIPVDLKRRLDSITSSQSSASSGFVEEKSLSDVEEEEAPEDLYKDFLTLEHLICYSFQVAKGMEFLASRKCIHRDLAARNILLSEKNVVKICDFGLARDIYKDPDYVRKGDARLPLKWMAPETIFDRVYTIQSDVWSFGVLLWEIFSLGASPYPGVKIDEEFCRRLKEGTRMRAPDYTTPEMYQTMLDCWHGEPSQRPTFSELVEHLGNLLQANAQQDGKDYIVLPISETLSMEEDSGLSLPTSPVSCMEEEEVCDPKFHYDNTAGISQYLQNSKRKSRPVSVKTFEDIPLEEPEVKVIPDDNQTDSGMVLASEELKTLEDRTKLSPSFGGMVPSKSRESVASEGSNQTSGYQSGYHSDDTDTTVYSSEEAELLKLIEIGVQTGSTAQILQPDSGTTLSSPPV
Sequence of VEGFR 3 (P35916 25-1363): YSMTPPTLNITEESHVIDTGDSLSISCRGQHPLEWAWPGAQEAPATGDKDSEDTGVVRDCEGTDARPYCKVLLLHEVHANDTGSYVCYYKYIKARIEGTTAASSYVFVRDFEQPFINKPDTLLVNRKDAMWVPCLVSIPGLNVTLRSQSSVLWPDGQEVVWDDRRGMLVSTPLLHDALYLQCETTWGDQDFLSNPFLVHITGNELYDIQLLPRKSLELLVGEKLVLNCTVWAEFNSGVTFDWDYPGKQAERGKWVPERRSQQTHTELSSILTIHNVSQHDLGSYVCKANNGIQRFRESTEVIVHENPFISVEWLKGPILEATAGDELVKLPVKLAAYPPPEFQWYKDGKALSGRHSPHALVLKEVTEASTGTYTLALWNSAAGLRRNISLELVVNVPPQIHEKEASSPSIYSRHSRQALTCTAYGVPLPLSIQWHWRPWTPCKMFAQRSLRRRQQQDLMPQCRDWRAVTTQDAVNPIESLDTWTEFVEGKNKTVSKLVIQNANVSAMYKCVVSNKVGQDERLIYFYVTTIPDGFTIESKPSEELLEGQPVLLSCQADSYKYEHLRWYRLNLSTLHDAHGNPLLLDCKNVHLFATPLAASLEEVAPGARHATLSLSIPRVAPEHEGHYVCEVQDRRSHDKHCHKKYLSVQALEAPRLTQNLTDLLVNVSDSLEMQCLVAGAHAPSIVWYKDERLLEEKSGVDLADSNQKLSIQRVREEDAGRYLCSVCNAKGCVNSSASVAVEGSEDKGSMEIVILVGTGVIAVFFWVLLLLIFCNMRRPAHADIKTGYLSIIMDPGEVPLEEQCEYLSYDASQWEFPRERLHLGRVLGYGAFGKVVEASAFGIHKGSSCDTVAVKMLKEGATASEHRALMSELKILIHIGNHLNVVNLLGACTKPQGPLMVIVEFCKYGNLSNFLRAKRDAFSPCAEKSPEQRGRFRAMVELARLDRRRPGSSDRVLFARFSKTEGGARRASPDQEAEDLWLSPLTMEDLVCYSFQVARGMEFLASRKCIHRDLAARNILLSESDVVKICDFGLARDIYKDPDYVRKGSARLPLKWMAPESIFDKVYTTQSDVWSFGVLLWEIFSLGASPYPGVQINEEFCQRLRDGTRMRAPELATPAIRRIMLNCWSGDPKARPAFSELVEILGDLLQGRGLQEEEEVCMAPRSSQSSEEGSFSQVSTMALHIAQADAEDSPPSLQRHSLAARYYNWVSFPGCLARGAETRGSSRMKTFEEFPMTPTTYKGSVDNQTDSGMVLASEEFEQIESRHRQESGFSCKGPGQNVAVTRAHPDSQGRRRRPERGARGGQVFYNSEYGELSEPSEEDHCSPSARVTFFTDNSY
Sequence of CSF1R (P07333 20-972): as the sequence (P07333 20-972) above

With Cc1cc2cc(Oc3ccnc(Nc4cccc(CS(=O)(=O)NCCN(C)C)c4)n3)ccc2[nH]1 [Compound A, N-(2-(dimethylamino)ethyl)-1-(3-((4-((2-methyl-1H-indol-5-yl)oxy)pyrimidin-2-yl)amino)phenyl)-methanesulfonamide] the pIC50 (VEGFR 2) was 7.62, the pIC50 (TrkB) was 7.39 and the “MTD (maximum tolerated dose)” value [1] was “not reached”. The pIC50 (VEGFR 1) was 8.70, the pIC50 (FLT3) was 7.17 and the “patients with confirmed PR” value (advanced solid tumors) was “nine”. The pIC50 (CSF1R) was 8.40, the pIC50 (278 other kinases) was < 6.82 and the “IH (%)” value (Fms kinase; 0.0001 μM) was −3%. For the same compound, the “IH (%)” value (Fms kinase; 0.0003 μM) was 3%, the “IH (%)” value (Fms kinase; 0.001 μM) was 15% and the “IH (%)” value (Fms kinase; 0.003 μM) was 38%. For the same compound, the “IH (%)” value (Fms kinase; 0.01 μM) was 72%, the “IH (%)” value (Fms kinase; 0.03 μM) was 86% and the “IH (%)” value (Fms kinase; 0.1 μM) was 94%. The “IH (%)” value (Fms kinase; 0.3 μM) was 98%, the “IH (%)” value (Fms kinase; 1 μM) was 98% and the pIC50 (VEGFR 3) was 9.00. It also gave a pIC50 (FGFR1) of 7.82.

For CO[C@H]1C[C@@H]2CC[C@@H](C)[C@@](O)(O2)C(=O)C(=O)N2CCCC[C@H]2C(=O)O[C@H]([C@H](C)C[C@@H]2CC[C@@H](OCCO)[C@H](OC)C2)CC(=O)[C@H](C)/C=C(\C)[C@@H](O)[C@@H](OC)C(=O)[C@H](C)C[C@H](C)/C=C/C=C/C=C/1C [everolimus], the ORR (NET; GI and lung NET) is given as 2%, the ORR (NET; pancreatic NET) is given as 5% and the “median PFS” value (NET; phase 3 trials) is given as “approximately 11 months”.
